Reference: PubChem BioAssay (NCI)
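Values below derive from 48-hour exposures of cells grown in 96-well plates, with endpoints linearly interpolated between the two concentrations bracketing the appropriate inhibition level. GI50 = concentration required for 50% inhibition of growth. Definition used: TGI = concentration required for complete inhibition of growth.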

How the values were obtained:
Assay in all cases: inhibition of tumour cell growth, NCI panel, 48 h
HOP-62 NSCLC = tested on: HOP-62 NSCLC
ACHN renal = tested on: ACHN renal
SF-295 CNS = tested on: SF-295 CNS
OVCAR-5 ovarian = tested on: OVCAR-5 ovarian
COLO 205 colon = tested on: COLO 205 colon
CAKI-1 renal = tested on: CAKI-1 renal
BT-549 breast = tested on: BT-549 breast
SK-MEL-2 melanoma = tested on: SK-MEL-2 melanoma
A498 renal = tested on: A498 renal
MDA-MB-435 = tested on: MDA-MB-435
RPMI-8226 leukemia = tested on: RPMI-8226 leukemia
LOX IMVI melanoma = tested on: LOX IMVI melanoma
HOP-92 NSCLC = tested on: HOP-92 NSCLC
PC-3 prostate = tested on: PC-3 prostate
SNB-75 CNS = tested on: SNB-75 CNS
U251 CNS = tested on: U251 CNS
NCI-H522 lung = tested on: NCI-H522 lung
NCI/ADR-RES ovarian = tested on: NCI/ADR-RES ovarian
M14 melanoma = tested on: M14 melanoma
HCC-2998 colon = tested on: HCC-2998 colon
MOLT-4 leukemia = tested on: MOLT-4 leukemia
KM12 colon = tested on: KM12 colon
SW-620 colon = tested on: SW-620 colon
SF-539 CNS = tested on: SF-539 CNS
A549 NSCLC = tested on: A549 NSCLC
TK-10 renal = tested on: TK-10 renal
SK-MEL-5 melanoma = tested on: SK-MEL-5 melanoma
NCI-H460 lung = tested on: NCI-H460 lung
HS 578T breast = tested on: HS 578T breast
RXF 393 renal = tested on: RXF 393 renal
HL-60(TB) leukemia = tested on: HL-60(TB) leukemia
EKVX NSCLC = tested on: EKVX NSCLC
UACC-257 melanoma = tested on: UACC-257 melanoma
UO-31 renal = tested on: UO-31 renal
SN12C renal = tested on: SN12C renal
IGROV1 ovarian = tested on: IGROV1 ovarian
MDA-MB-231 breast = tested on: MDA-MB-231 breast
CCRF-CEM leukemia = tested on: CCRF-CEM leukemia
SF-268 CNS = tested on: SF-268 CNS
MALME-3M melanoma = tested on: MALME-3M melanoma
DU-145 prostate = tested on: DU-145 prostate
NCI-H23 lung = tested on: NCI-H23 lung
SNB-19 CNS = tested on: SNB-19 CNS
OVCAR-8 ovarian = tested on: OVCAR-8 ovarian
UACC-62 melanoma = tested on: UACC-62 melanoma
HT29 colon = tested on: HT29 colon
786-0 renal = tested on: 786-0 renal
HCT-15 colon = tested on: HCT-15 colon
OVCAR-3 ovarian = tested on: OVCAR-3 ovarian
SK-MEL-28 melanoma = tested on: SK-MEL-28 melanoma
NCI-H226 lung = tested on: NCI-H226 lung
K-562 leukemia = tested on: K-562 leukemia
T-47D breast = tested on: T-47D breast
SK-OV-3 ovarian = tested on: SK-OV-3 ovarian
OVCAR-4 ovarian = tested on: OVCAR-4 ovarian
SR leukemia = tested on: SR leukemia
HCT-116 colon = tested on: HCT-116 colon
MCF7 breast = tested on: MCF7 breast

O=S1CCN(Cc2ccc(-c3ccc4ncnc(Nc5ccc(OCc6cccc(F)c6)c(Cl)c5)c4c3)o2)CC1
GI50 (HOP-62 NSCLC): 14.8 µM
TGI (HOP-62 NSCLC): > 25 µM
GI50 (ACHN renal): 0.082 µM
TGI (ACHN renal): > 25 µM
GI50 (SF-295 CNS): 5.83 µM
TGI (SF-295 CNS): > 19 µM
GI50 (OVCAR-5 ovarian): 5.8 µM
TGI (OVCAR-5 ovarian): > 25 µM
GI50 (COLO 205 colon): 4.77 µM
TGI (COLO 205 colon): 13.5 µM
GI50 (CAKI-1 renal): 0.041 µM
TGI (CAKI-1 renal): > 25 µM
GI50 (BT-549 breast): 6.2 µM
TGI (BT-549 breast): > 23.9 µM
GI50 (SK-MEL-2 melanoma): 4.41 µM
TGI (SK-MEL-2 melanoma): 9.97 µM
GI50 (A498 renal): 0.862 µM
TGI (A498 renal): > 16.7 µM
GI50 (MDA-MB-435): 7.1 µM
TGI (MDA-MB-435): > 25 µM
GI50 (RPMI-8226 leukemia): 6.65 µM
TGI (RPMI-8226 leukemia): > 22.8 µM
GI50 (LOX IMVI melanoma): 4.65 µM
TGI (LOX IMVI melanoma): 10.5 µM
GI50 (HOP-92 NSCLC): 3.95 µM
TGI (HOP-92 NSCLC): 22.4 µM
GI50 (PC-3 prostate): 8.91 µM
TGI (PC-3 prostate): > 25 µM
GI50 (SNB-75 CNS): 7.92 µM
TGI (SNB-75 CNS): > 25 µM
GI50 (U251 CNS): 9.4 µM
TGI (U251 CNS): > 25 µM
GI50 (NCI-H522 lung): 0.647 µM
TGI (NCI-H522 lung): 15.8 µM
GI50 (NCI/ADR-RES ovarian): 4.82 µM
TGI (NCI/ADR-RES ovarian): > 25 µM
GI50 (M14 melanoma): 5.84 µM
TGI (M14 melanoma): > 18.6 µM
GI50 (HCC-2998 colon): 5.34 µM
TGI (HCC-2998 colon): 14.7 µM
GI50 (MOLT-4 leukemia): 4.94 µM
TGI (MOLT-4 leukemia): > 20.1 µM
GI50 (KM12 colon): 6.72 µM
TGI (KM12 colon): > 22.8 µM
GI50 (SW-620 colon): 7.34 µM
TGI (SW-620 colon): > 25 µM
GI50 (SF-539 CNS): 6.54 µM
TGI (SF-539 CNS): > 20.9 µM
GI50 (A549 NSCLC): 5.92 µM
TGI (A549 NSCLC): > 25 µM
GI50 (TK-10 renal): 0.00776 µM
TGI (TK-10 renal): > 16.3 µM
GI50 (SK-MEL-5 melanoma): 3.09 µM
TGI (SK-MEL-5 melanoma): 6.42 µM
GI50 (NCI-H460 lung): 7.62 µM
TGI (NCI-H460 lung): > 25 µM
GI50 (HS 578T breast): 4.63 µM
TGI (HS 578T breast): > 21.6 µM
GI50 (RXF 393 renal): 3.85 µM
TGI (RXF 393 renal): > 23.6 µM
GI50 (HL-60(TB) leukemia): 6.3 µM
TGI (HL-60(TB) leukemia): 15.7 µM
GI50 (EKVX NSCLC): 0.0304 µM
TGI (EKVX NSCLC): > 25 µM
GI50 (UACC-257 melanoma): 5.43 µM
TGI (UACC-257 melanoma): > 20.5 µM
GI50 (UO-31 renal): 0.473 µM
TGI (UO-31 renal): 24.9 µM
GI50 (SN12C renal): 7.77 µM
TGI (SN12C renal): > 25 µM
GI50 (IGROV1 ovarian): 0.226 µM
TGI (IGROV1 ovarian): 5.29 µM
GI50 (MDA-MB-231 breast): 5.19 µM
TGI (MDA-MB-231 breast): > 16.1 µM
GI50 (CCRF-CEM leukemia): 6.89 µM
TGI (CCRF-CEM leukemia): 24.8 µM
GI50 (SF-268 CNS): 8.56 µM
TGI (SF-268 CNS): > 25 µM
GI50 (MALME-3M melanoma): 6.01 µM
TGI (MALME-3M melanoma): 23.2 µM
GI50 (DU-145 prostate): 4.26 µM
TGI (DU-145 prostate): > 25 µM
GI50 (NCI-H23 lung): 8.42 µM
TGI (NCI-H23 lung): > 25 µM
GI50 (SNB-19 CNS): > 7.82 µM
TGI (SNB-19 CNS): > 25 µM
GI50 (OVCAR-8 ovarian): 7.68 µM
TGI (OVCAR-8 ovarian): > 25 µM
GI50 (UACC-62 melanoma): 4.12 µM
TGI (UACC-62 melanoma): 10.6 µM
GI50 (HT29 colon): 4.22 µM
TGI (HT29 colon): 10.8 µM
GI50 (786-0 renal): 6.54 µM
TGI (786-0 renal): > 25 µM
GI50 (HCT-15 colon): 5.77 µM
TGI (HCT-15 colon): > 25 µM
GI50 (OVCAR-3 ovarian): 4.86 µM
TGI (OVCAR-3 ovarian): > 25 µM
GI50 (SK-MEL-28 melanoma): 5.75 µM
TGI (SK-MEL-28 melanoma): > 25 µM
GI50 (NCI-H226 lung): 4.4 µM
TGI (NCI-H226 lung): > 25 µM
GI50 (K-562 leukemia): 6.53 µM
TGI (K-562 leukemia): > 25 µM
GI50 (T-47D breast): 1.95 µM
TGI (T-47D breast): 18.3 µM
GI50 (SK-OV-3 ovarian): 0.00587 µM
TGI (SK-OV-3 ovarian): > 25 µM
GI50 (OVCAR-4 ovarian): 5.26 µM
TGI (OVCAR-4 ovarian): > 25 µM
GI50 (SR leukemia): 5.38 µM
TGI (SR leukemia): 17.5 µM
GI50 (HCT-116 colon): 8.66 µM
TGI (HCT-116 colon): > 25 µM
GI50 (MCF7 breast): 6.1 µM
TGI (MCF7 breast): > 25 µM

c1ccc(CSc2nc(N3CCCCC3)c3cn[nH]c3n2)cc1
TGI (HOP-62 NSCLC): 43.3 µM
TGI (ACHN renal): 94.7 µM
TGI (SF-295 CNS): 63.7 µM
TGI (OVCAR-5 ovarian): > 100 µM
TGI (COLO 205 colon): 62.4 µM
TGI (CAKI-1 renal): > 100 µM
TGI (BT-549 breast): 34.6 µM
TGI (SK-MEL-2 melanoma): 32.5 µM
TGI (A498 renal): 34.3 µM
TGI (MDA-MB-435): 47.9 µM
TGI (RPMI-8226 leukemia): 72.8 µM
TGI (LOX IMVI melanoma): 49.1 µM
TGI (HOP-92 NSCLC): 72.8 µM
TGI (PC-3 prostate): 51 µM
TGI (SNB-75 CNS): 46.8 µM
TGI (U251 CNS): 40.7 µM
TGI (NCI-H522 lung): 36.4 µM
TGI (NCI/ADR-RES ovarian): > 100 µM
TGI (M14 melanoma): 37 µM
TGI (HCC-2998 colon): 45 µM
TGI (MOLT-4 leukemia): > 100 µM
TGI (KM12 colon): 35.4 µM
TGI (SW-620 colon): 44.5 µM
TGI (SF-539 CNS): 34.9 µM
TGI (A549 NSCLC): > 100 µM
TGI (TK-10 renal): 70.2 µM
TGI (SK-MEL-5 melanoma): 31 µM
TGI (NCI-H460 lung): 64.5 µM
TGI (HS 578T breast): 43.9 µM
TGI (RXF 393 renal): 35.4 µM
TGI (HL-60(TB) leukemia): > 100 µM
TGI (EKVX NSCLC): 65.3 µM
TGI (UACC-257 melanoma): 35.4 µM
TGI (UO-31 renal): 42.8 µM
TGI (SN12C renal): 42 µM
TGI (IGROV1 ovarian): 41.8 µM
TGI (MDA-MB-231 breast): 36.8 µM
TGI (CCRF-CEM leukemia): > 100 µM
TGI (SF-268 CNS): 61.3 µM
TGI (MALME-3M melanoma): 37.3 µM
TGI (DU-145 prostate): > 100 µM
TGI (NCI-H23 lung): 66.5 µM
TGI (SNB-19 CNS): 79 µM
TGI (OVCAR-8 ovarian): 74.3 µM
TGI (UACC-62 melanoma): 32 µM
TGI (HT29 colon): > 100 µM
TGI (786-0 renal): 79.8 µM
TGI (HCT-15 colon): > 100 µM
TGI (OVCAR-3 ovarian): 69.1 µM
TGI (SK-MEL-28 melanoma): 41.3 µM
TGI (NCI-H226 lung): 44.9 µM
TGI (K-562 leukemia): > 100 µM
TGI (T-47D breast): > 100 µM
TGI (SK-OV-3 ovarian): > 100 µM
TGI (OVCAR-4 ovarian): > 100 µM
TGI (SR leukemia): > 100 µM
TGI (HCT-116 colon): 44.1 µM
TGI (MCF7 breast): 72.4 µM
